Assay results: patent publication US9328369B2, “Process for production of useful substance, and surfactant for use in the process” (priority 2009, dated 2016)

Assays:
Format in all cases: cell-based
Escherichia coli (α) = experiment: Screening of secretion efficiency, alkaline phosphatase expressing strain; details: surfactant 1 wt %; 37° C., 1 hour; ELISA, anti-His-tag antibody
Source text: An alkaline phosphatase (phoA) gene of an Escherichia coli strain W3110 was amplified by the PCR method using primers 1 and 2 (Table 4). After being treated with restriction enzymes NdeI and BamHI, a PCR fragment was bound with an NdeI restriction enzyme site and with a BamHI restriction enzyme site of a pET-22b plasmid (product of Novagen). Then, the plasmid was transformed into an AG1 (DE3) Escherichia coli strain formed by transforming an Escherichia coli strain AG1 (product of TOYOBO Co., LTD.) with use of a λDE3 Lysogenization Kit (product of Novagen). In this manner, an alkaline phosphatase expressing strain (a) was formed.
(§1) A pdxA gene of an Escherichia coli strain W3110 was amplified by the PCR method using primers 5 and 6 (Table 4). After being treated with restriction enzymes NdeI and BamHI, a PCR fragment was bound to an NdeI restriction enzyme site and a BamHI restriction enzyme site of a pET-22b plasmid (product of Novagen). Then, the plasmid was transformed into an AG1 (DE3) Escherichia coli strain to form a PdxA expressing strain (γ).
In this manner, culture solutions were prepared.
(2) The strains were collected using a centrifuge (4,000 G, 4° C., 15 minutes). Each of the collected Escherichia coli strains was resuspended in 1 mL of a TB culture solution (product of Difco) and chloramphenicol (30 mg/L) and IPTG (100 μM) were added thereto. Shake culture at 37° C. for 3 hours induced expression of phoA, torA, and pdxA.
(3) Subsequently, harvesting using a centrifuge was carried out again (4,000 G, 4° C., 15 minutes). Each of the collected Escherichia coli strains was resuspended in 2.5 mL of a Tris-NaCl buffer solution (50 mM Tris (pH 7.5), 100 mM NaCl). The resulting solution was divided into 25-μL portions at a time to be mixed with 25 μL of a Tris-NaCl buffer solution.
(4) Then, the solution was allowed to stand at 37° C. for 1 hour. The supernatant solution was collected and diluted in a Tris-NaCl buffer solution to a proper concentration. Here, the quantification of the recombinant protein in the resulting solution was carried out by ELISA assay with use of an anti-His-tag antibody. The sample prior to the centrifugation in the process (3) was treated with ultrasonic waves (200 W, 10 minutes) and the quantification of the recombinant protein therein was similarly carried out by ELISA assay with use of an anti-His-tag antibody. The ratio of lysed bacteria was obtained with use of Escherichia coli (γ), and the secretion efficiencies of the recombinant proteins of Escherichia coli (α) and (β) were calculated by using the following formula. […] Secretion efficiency (%)=100×{(X/Y)−Z}.
In the formula, “X” represents the amount of the recombinant protein in the culture solution after removal of bacterial cells by centrifugation in the case of using Escherichia coli (α) or (β).
“Y” represents the amount of the whole recombinant protein in the culture solution in the case of using Escherichia coli (α) or (β).
“Z” represents the ratio of lysed bacteria obtained with use of Escherichia coli (γ), which is determined by the following formula: Z=Z1/Z2.
In the formula, “Z1” represents the amount of the recombinant protein in the culture solution which remains after removal of bacterial cells by centrifugation in the case of using Escherichia coli (γ).
“Z2” represents the amount of the whole recombinant protein in the culture solution in the case of using Escherichia coli (γ).
Escherichia coli (α) and (β) were each cultured in the same manner as in the above case except that polyoxyethylene (3 mol) tridecyl ether sodium acetate as the surfactant (A) was added right after the resuspension of the Escherichia coli in the buffer solution in the process (3) of A-0, in an amount of 1% by weight on the basis of the weight of the suspension of the bacterium. The secretion efficiency was calculated according to the above-mentioned definition.

Escherichia coli(δ) [1] = experiment: Production by secretion in microbial culture system, cellulase expressing strain (Table 5); details: Examples 2-11; surfactant 1 wt %; supernatant of culture solution, SDS-PAGE
Escherichia coli(δ) [2] = experiment: as above; set-up: key to Turbidity: (measured turbidity of diluted culture − blank) × dilution rate; details: Examples 2-11, surfactant 1 wt %; for Dried cell density: at termination of culturing, obtained from turbidity; for Turbidity: culturing terminated after 48 hours
Procedure: A bglC gene of Bacillus licheniformis was amplified by the PCR method using primers 9 and 10 (Table 4). After being treated with restriction enzymes NcoI and BamHI, a PCR amplified fragment was bound to an NcoI restriction enzyme site and a BamHI restriction enzyme site of a pET-22b plasmid (product of Novagen). Then, the plasmid was transformed into a BL21 (DE3) Escherichia coli strain (product of Novagen) to form Escherichia coli […] that expresses cellulase.
Overnight cultures (1 ml) of Escherichia coli (δ) obtained in Production Example 4 and Escherichia coli (ε) obtained in Production Example 5 were respectively prepared as Comparative Example 2 and Comparative Example 4. An amount of 0.5 ml of each was inoculated in 5 ml of an LB culture solution (containing 100 mg/L of ampicillin) and was shake-cultured at 30° C. for 3 hours. In this manner, pre-culture solutions were prepared. The pre-culture solutions were each inoculated in 50 mL of a culture solution (1.2 g of yeast extract (Nihon Pharmaceutical Co., Ltd.), 0.6 g of polypeptone (Nihon Pharmaceutical Co., Ltd.), 0.47 g of dipotassium phosphate, 0.11 g of monopotassium phosphate, 0.35 g of ammonium sulfate, 0.66 g of disodium phosphate 12-hydrate, 0.02 g of sodium citrate dihydrate, 0.2 g of glycerol, 1.5 g of lactalbumin hydrolysate, 0.3 g of a defoaming agent (Shin-Etsu Chemical Co., Ltd., “KM-70”), 1 mM magnesium sulfate, trace metal solution (18.9 μg of calcium chloride, 500 μg of iron chloride (III), 9.0 μg of zinc sulfate heptahydrate, 5.1 μg of copper sulfate, 6.7 μg of manganese chloride tetrahydrate, 4.9 μg of cobalt chloride, 200 μg of ethylene-diamine-tetraacetic acid tetrasodium salt), 100 mg/L ampicillin). Culturing was initiated with use of a microbial culture system (ABLE Corporation, product name “BioJr. 8”), while the pH value and the temperature were maintained at 6.8 and 30° C. After the culturing was initiated, 0.15 mL of 1M IPTG was added. After 14 hours from the initiation of culturing, instillation of a glycerin/protein solution (50% of glycerin, 50 g/L of lactalbumin hydrolysate, a 33 g/L defoaming agent (Shin-Etsu Chemical Co., Ltd., “KM-70”), 100 mg/L ampicillin) was started. The culturing was terminated after 48 hours from the initiation and the culture solution was recovered. The whole protein in the culture solution was analyzed by SDS-PAGE. Based on the obtained amount of the protein band, the recombinant protein was quantified.
The dried cell density at the termination of the culturing was determined by the following processes (1) to (5):
The dried cell density was determined by applying the measuring results in the process (5) and the process (1) and the volume (L) of the culture solution used in the process (2) to the following formula: Dried cell density (g/L)=([measuring result in process (5)]−[measuring result in process (1)])/0.1.
Performance of this processes for several times clarified the proportional relationship between the turbidity of the culture solution and the dried cell density. Therefore, the dried cell density was obtained from the measured turbidity in each of Comparative Examples 2 to 4 and Examples 2 to 14.
The turbidity of a culture solution that is same as the culture solution used in the measurement of the dried cell density was measured using a turbidimeter (Shimadzu Corporation, UV-1700) and 1 ml of quarts cell.
For measurement, the culture solution was diluted in saline to have an appropriate absorbance. The absorbance of the same culture solution (but not containing bacteria) diluted at the same dilution as above was set as a blank. The turbidity of the culture solution was calculated by using the following formula: Turbidity of culture solution=[(measured turbidity of diluted culture solution)−(measured turbidity of blank)]×dilution rate.
The dried cell density and the turbidity of the culture solution were plotted to construct a graph in FIG. 3. […]

Escherichia coli (β) = experiment: Screening of secretion efficiency, TorA expressing strain; details: surfactant 1 wt %; 37° C., 1 hour; ELISA, anti-His-tag antibody
Source text: as §1, with “torA” for “pdxA”, “3” for “5”, “4” for “6”, “TorA” for “PdxA”, “(β). Localization of the expressed TorA in a periplasmic fraction was confirmed by conducting an analysis based on the method disclosed in page 121 of Vol. 353 of METHODS IN ENZYMOLOGY (2002).” for “(γ).”
as §1, with “(γ). Localization of the expressed PdxA in a cytoplasmic compartment was confirmed by conducting an analysis based on the method disclosed in page 121 of Vol. 353 of METHODS IN ENZYMOLOGY (2002). […]” for “(γ).”
(4) Then, the solution was allowed to stand at 37° C. for 1 hour. […] Here, the quantification of the recombinant protein in the resulting solution was carried out by ELISA assay with use of an anti-His-tag antibody. The sample prior to the centrifugation in the process (3) was treated with ultrasonic waves (200 W, 10 minutes) and the quantification of the recombinant protein therein was similarly carried out by ELISA assay with use of an anti-His-tag antibody. The ratio of lysed bacteria was obtained with use of Escherichia coli (γ), and the secretion efficiencies of the recombinant proteins of Escherichia coli (α) and (β) were calculated by using the following formula. […]
“Z” represents the ratio of lysed bacteria obtained with use of Escherichia coli (γ), which is determined by the following formula: Z=Z1/Z2. […]

| Compound | Secretion efficiency (%) Escherichia coli (α) (Escherichia coli (α)) | other results |
| --- | --- | --- |
| Sodiumt polyoxyethylene (3 mol) laurylether acetate [A-9] | 63.3% | Quantitative value of produced recombinant protein (Escherichia coli(δ) [1]): 1.35 g/L; Dried cell density (Escherichia coli(δ) [2]): 14.2 g/L; Turbidity (Escherichia coli(δ) [2]): 50.7 |
| CCCCCCCCCCCC(=O)NCCN(CCO)CC(=O)O.[Na] [A-13, Sodium N-lauroyl-N′-carboxymethyl-N′-hydroxyethyl ethylenediamine] | 46.6% | Quantitative value of produced recombinant protein (Escherichia coli(δ) [1]): 1.79 g/L; Dried cell density (Escherichia coli(δ) [2]): 21.4 g/L; Turbidity (Escherichia coli(δ) [2]): 76.4 |
| Palm oil fatty acid amide propyl dimethyl amino acetate betaine [A-3] | 91.3% | Secretion efficiency (%) Escherichia coli (β) (Escherichia coli (β)): 93.6% |
| Polyoxyethylene(10 mol)cetyl ether [A-65] | 0.5% |  |
| polyoxyethylene-p-isooctyl phenol [A-16] | 36.7% |  |
| CCCCCCCCCCCCCCCCCC[N+](C)(C)C.[Cl-] [A-15, Stearyl trimethyl ammonium chloride] | 37.3% |  |
| Stearylamine polyoxyethylene (15 mol) adduct [A-26] | 11.0% |  |
| Polyoxyethylene glyceryl triisostearate [A-32] | 5.9% |  |
| EO 20 mol adduct of sorbitan trioleate [A-41] | 4.6% |  |
| EO 25 mol adduct of cured castor oil [A-44] | 3.0% |  |
| CCCCCCCCCC[N+](C)(C)CCCCCCCCCC.[Cl-] [A-20, Didecyl dimethylammonium chloride] | 28.7% |  |
| Polyoxyethylene (3 mol) lauryl ether acetate [A-24] | 16.1% |  |
| Polyoxyethylene isostearyl ether [A-34] | 5.3% |  |
| Palm oil fatty acid diethanol amide [A-2] | 97.5% |  |
| Isostearyl alcohol polyoxyethylene (5 mol) adduct sodium ether carboxylate [A-52] | 2.2% |  |
| Polyoxyethylene(Mw = 1000)dioleate [A-66] | 0.3% |  |
| Lauryl diphenyl ether sodium disulfonate [A-74] | 0.0% |  |
| CCCCCCCCCCCC[N+](C)(C)CC(=O)[O-] [A-5, Lauryl dimethylamino acetate betaine] | 87.8% | Quantitative value of produced recombinant protein (Escherichia coli(δ) [1]): 2.58 g/L; Dried cell density (Escherichia coli(δ) [2]): 23.8 g/L; Turbidity (Escherichia coli(δ) [2]): 85 |
| Polyoxyethylene (20 mol) sorbitan monooleate [A-37] | 5.2% |  |
| Sodium polyoxyethylene (2.5 mol) laurylether sulfate [A-11] | 53.2% |  |
| Polyethylene glycol monoisostearate [A-40] | 4.9% |  |
| Polyoxyethylene(Mw = 600)oleate monoester [A-67] | 0.3% |  |
